# Activity calls are given as the source filed them. The calls are words filed in the database; no cut-off is given here.
# Key:
# [1] = molecular target: T1, Toll-like receptor 4 (Mus musculus) (UniProt Q9QUK6); assay: Inhibition of LPS binding to TLR4 in IFNgamma-stimulated mouse RAW264.7 cells assessed as reduction in nitric oxide production at 25 to 100 uM pretreated for 2 hrs followed by LPS/IFNgamma stimulation and measured after 24 hrs; type: cell-based
# T1 sequence (whole entry): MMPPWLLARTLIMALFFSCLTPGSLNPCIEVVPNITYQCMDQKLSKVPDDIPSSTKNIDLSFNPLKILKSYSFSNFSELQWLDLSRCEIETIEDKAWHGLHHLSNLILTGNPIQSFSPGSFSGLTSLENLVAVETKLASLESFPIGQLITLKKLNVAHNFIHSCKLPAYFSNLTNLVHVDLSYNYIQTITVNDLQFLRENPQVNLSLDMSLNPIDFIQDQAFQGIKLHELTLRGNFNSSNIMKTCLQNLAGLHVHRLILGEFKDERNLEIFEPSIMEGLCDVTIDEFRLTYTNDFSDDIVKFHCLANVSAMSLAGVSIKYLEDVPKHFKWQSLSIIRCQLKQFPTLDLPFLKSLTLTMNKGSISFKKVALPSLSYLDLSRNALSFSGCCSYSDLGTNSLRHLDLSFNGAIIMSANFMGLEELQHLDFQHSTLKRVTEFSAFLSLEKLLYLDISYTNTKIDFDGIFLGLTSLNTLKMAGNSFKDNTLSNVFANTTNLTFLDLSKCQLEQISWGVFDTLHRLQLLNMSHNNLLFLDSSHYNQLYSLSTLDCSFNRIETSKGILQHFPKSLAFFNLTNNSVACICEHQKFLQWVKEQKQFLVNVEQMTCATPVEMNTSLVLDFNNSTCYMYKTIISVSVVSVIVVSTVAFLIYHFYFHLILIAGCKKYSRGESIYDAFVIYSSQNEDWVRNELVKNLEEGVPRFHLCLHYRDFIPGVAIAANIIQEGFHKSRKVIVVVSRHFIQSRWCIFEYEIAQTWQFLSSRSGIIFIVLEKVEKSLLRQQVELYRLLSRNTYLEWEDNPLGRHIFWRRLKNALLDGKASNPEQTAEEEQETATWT
# [2] = molecular target: T1, Toll-like receptor 4 (Mus musculus); assay: Inhibition of LPS binding to TLR4 in IFNgamma-stimulated mouse RAW264.7 cells assessed as reduction in nitric oxide production pretreated for 2 hrs followed by LPS/IFNgamma stimulation and measured after 24 hrs; type: cell-based
Structure (SMILES),inhibition [1],inhibition [2]
CC1(C)CC[C@]2(C(=O)O)CC[C@]3(C)C(=CC[C@@H]4[C@@]5(C)CC[C@H](O)C(C)(C)[C@@H]5CC[C@]43C)[C@@H]2C1,inactive,
CC1(C)[C@@H](O)CC[C@]2(C)[C@H]3C(=O)C=C4[C@@H]5C[C@@](C)(C(=O)O)CC[C@]5(C)CC[C@@]4(C)[C@]3(C)CC[C@@H]12,inactive,
C=C(C)[C@@H]1CC[C@]2(C(=O)O)CC[C@]3(C)[C@H](CC[C@@H]4[C@@]5(C)CC[C@H](O)C(C)(C)[C@@H]5CC[C@]43C)[C@@H]12,inactive,
CC1(C)CC[C@]2(C)CC[C@]3(C(=O)O)C(=CC[C@@H]4[C@@]5(C)CCC(=O)C(C)(C)[C@@H]5CC[C@]43C)[C@@H]2C1,inactive,
C[C@H]1[C@H](C)CC[C@]2(C(=O)O)CC[C@]3(C)C(=CC[C@@H]4[C@@]5(C)CC[C@H](O)C(C)(C)[C@@H]5CC[C@]43C)[C@H]12,,Dose-dependent effect

# Reference: ChEMBL document CHEMBL4261619, “Sentulic acid isolated from Sandoricum koetjape Merr attenuates lipopolysaccharide and interferon gamma co-stimulated nitric oxide production in murine macrophage RAW264 cells” (Bioorg Med Chem Lett, 2018)
